Reference: the supplement of paper PMC10307832

Key:
Experiment in all cases: relative viability (nuclei count vs DMSO), 5 days (fraction); higher = more cells survive
Ponatinib = compound: Cc1ccc(C(=O)Nc2ccc(CN3CCN(C)CC3)c(C(F)(F)F)c2)cc1C#Cc1cnc2cccnn12 [Ponatinib]
Outline: (§1)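 For viability, nuclei in each treated well were divided by nuclei in vehicle wells and the median across plates was taken. Lung cancer cell lines in 1536-well plates were pinned with five library-drug doses (not always all listed) spaced by √10, cultured 5 days without medium change, and imaged at 4× after Hoechst staining, with plates passing only at control CV below 25% and at least one doubling.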

Pazopanib = compound: Cc1ccc(Nc2nccc(N(C)c3ccc4c(C)n(C)nc4c3)n2)cc1S(N)(=O)=O [Pazopanib]
Outline: as §1

Ponatinib + Alpelisib = compound: Cc1ccc(C(=O)Nc2ccc(CN3CCN(C)CC3)c(C(F)(F)F)c2)cc1C#Cc1cnc2cccnn12 [Ponatinib] + Cc1nc(NC(=O)N2CCC[C@H]2C(N)=O)sc1-c1ccnc(C(C)(C)C(F)(F)F)c1 [Alpelisib] (partner 2 µM)
Outline: (§2)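 Each reported value is a median over duplicate plates. It expresses relative viability: treated-well nuclei count divided by vehicle-well nuclei count. Lung cancer cell lines in 1536-well plates were dosed by pin tool a day after seeding, alone with one drug or with a fixed anchor-drug dose plus five library-drug doses (not always all listed) in √10 steps, and nuclei were counted after 5 days.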

Pazopanib + Bortezomib = compound: Cc1ccc(Nc2nccc(N(C)c3ccc4c(C)n(C)nc4c3)n2)cc1S(N)(=O)=O [Pazopanib] + CC(C)C[C@H](NC(=O)[C@H](Cc1ccccc1)NC(=O)c1cnccn1)B(O)O [Bortezomib] (partner 0.002 µM)
Outline: as §2

Cell Line | relative viability (Ponatinib; 0.002 µM) | relative viability (Ponatinib; 0.006325 µM) | relative viability (Ponatinib; 0.06325 µM) | relative viability (Ponatinib; 0.2 µM) | relative viability (Pazopanib; 0.01 µM) | relative viability (Pazopanib; 0.03162 µM) | relative viability (Pazopanib; 0.1 µM) | relative viability (Pazopanib; 0.3162 µM) | relative viability (Pazopanib; 1 µM) | relative viability (Ponatinib + Alpelisib; first compound 0.002 µM) | relative viability (Ponatinib + Alpelisib; first compound 0.006325 µM) | relative viability (Ponatinib + Alpelisib; first compound 0.06325 µM) | relative viability (Ponatinib + Alpelisib; first compound 0.2 µM) | relative viability (Pazopanib + Bortezomib; first compound 0.01 µM) | relative viability (Pazopanib + Bortezomib; first compound 0.03162 µM) | relative viability (Pazopanib + Bortezomib; first compound 0.1 µM) | relative viability (Pazopanib + Bortezomib; first compound 0.3162 µM) | relative viability (Pazopanib + Bortezomib; first compound 1 µM)
SW 1573 | 0.961 | 0.955 | 1.06 | 0.897 | 0.948 | 1.02 | 1.07 | 1.2 | 1.13 | 0.788 | 0.716 | 0.857 | 0.693 | 0.945 | 1.14 | 1.08 | 1.09 | 1.17
NCI-H1299 | 0.997 | 1.02 | 1.02 | 0.931 | 1.02 | 1.03 | 1.03 | 0.993 | 0.95 | 1.04 | 1.09 | 0.987 | 0.935 | 0.998 | 0.987 | 1.05 | 1.03 | 1.02
NCI-H2009 | 0.95 | 0.944 | 1.07 | 1.03 | 0.989 | 1.04 | 0.937 | 1.02 | 0.891 | 1.14 | 1.13 | 1.18 | 1.07 | 0.892 | 1.11 | 0.876 | 0.955 | 0.906
LOU-NH91 | 0.957 | 1.03 | 1.04 | 0.938 | 0.903 | 0.955 | 0.949 | 1.11 | 1.01 | 0.703 | 0.792 | 0.822 | 0.713 | 0.484 | 0.481 | 0.496 | 0.475 | 0.506
NCI-H3122 | 0.979 | 0.997 | 1.02 | 1.02 | 1.04 | 0.997 | 1.01 | 1.06 | 1.05 | 0.883 | 0.86 | 0.863 | 0.909 | 1.04 | 0.985 | 0.917 | 1.02 | 1.1
LCLC-97TM1 | 0.925 | 0.996 | 0.961 | 0.892 |  | 1 | 0.912 | 1.02 | 1.04 |  | 0.227 |  | 0.314 | 0.506 | 0.693 | 0.482 | 0.737 | 0.592
NCI-H647 | 0.818 | 1.05 | 1.09 | 0.769 | 0.885 | 1.08 | 0.895 | 0.956 | 1.13 | 1.12 | 1.25 | 1.06 | 0.961 | 0.822 | 0.93 | 0.963 | 1.07 | 1.05
NCI-H838 | 0.95 | 1.01 | 0.994 | 0.793 | 0.918 | 1.01 | 0.996 | 1.05 | 1.14 | 1.01 | 0.982 | 1.13 | 0.812 | 0.898 | 0.883 | 0.927 | 0.87 | 1.2
H3255 | 0.867 | 0.97 | 0.984 | 0.908 | 0.925 | 0.965 | 0.869 | 0.998 | 1.01 | 0.641 | 0.697 | 0.743 | 0.688 | 0.695 | 0.723 | 0.75 | 1.06 | 0.92
NCI-H1437 | 0.945 | 0.983 | 1.01 | 0.926 | 1 | 0.972 | 0.971 | 0.976 | 1.06 | 0.952 | 0.969 | 1.17 | 1.03 | 0.617 | 0.537 | 0.428 | 0.518 | 0.583
LU99A | 0.94 | 1.02 | 0.943 | 0.939 | 0.759 | 0.909 | 1.01 | 1.03 | 1.01 | 0.519 | 0.453 | 0.62 | 0.466 | 0.913 | 1.18 | 1.18 | 1.25 | 1.25
HCC-827 | 0.983 | 1.03 | 1.07 | 1.03 | 1.11 | 1.06 | 1.04 | 1.07 | 1.04 | 1.01 | 0.987 | 1.01 | 1.01 | 0.963 | 1.06 | 1.06 | 1.05 | 1.03
HCC-366 | 1.03 | 1.04 | 1.05 | 0.989 | 0.922 | 0.989 | 1.03 | 1 | 1.1 | 0.375 | 0.43 | 0.69 | 0.376 | 0.954 | 1.07 | 1.02 | 0.973 | 1.09
BEN | 0.765 | 0.967 | 1.01 | 0.847 | 0.729 | 1.1 | 0.929 | 1.05 | 1.05 | 0.948 | 0.977 | 1.08 | 0.916 | 0.581 | 0.725 | 0.76 | 0.917 | 0.874
NCI-H23 | 0.862 | 1 | 1.15 | 0.833 | 0.858 | 1.04 | 1.03 | 1.02 | 1.29 | 0.61 | 0.818 | 0.905 | 0.666 | 0.813 | 1.1 | 1.11 | 1.07 | 1.41
201T | 0.928 | 0.986 | 1.07 | 0.963 | 0.937 | 0.919 | 0.979 | 1.06 | 0.932 | 1.02 | 1.03 | 1.08 | 1.02 | 1.09 | 1.14 | 1.13 | 1.1 | 1.11
NCI-H520 | 0.774 | 0.921 | 0.832 | 0.628 | 0.858 | 1.01 | 1.01 | 1.1 | 1.11 | 0.747 | 0.834 | 0.882 | 0.66 |  | 0.612 | 0.73 | 0.744 | 0.737
NCI-H727 | 0.883 | 0.855 | 1.2 | 0.872 | 0.841 | 0.907 | 0.91 | 1 | 1.16 | 0.599 | 0.533 | 0.72 | 0.468 | 0.791 | 0.938 | 0.98 | 0.928 | 1.11
HCC-15 | 0.972 | 1.06 | 1.1 | 1.02 | 0.837 | 0.987 | 1.02 | 1.06 | 1.03 | 0.82 | 0.906 | 0.988 | 0.805 | 1.05 | 1.18 | 1.04 | 0.976 | 1.05
NCI-H1563 | 0.935 | 0.959 | 0.99 | 0.815 | 0.85 | 0.997 | 1.02 | 0.996 | 1.07 | 0.998 | 0.953 | 1 | 0.789 | 0.788 | 0.873 | 0.947 | 0.913 | 0.985
ABC-1 | 0.865 | 0.852 | 0.96 | 0.751 | 0.798 | 0.89 |  | 1.08 | 0.974 | 1.18 | 0.987 | 1.08 | 0.874 | 0.257 | 0.293 | 0.212 | 0.316 | 0.343
LCLC-103H | 0.925 | 1 | 1.05 | 0.957 | 0.762 | 1.03 | 0.984 | 0.948 | 1.04 | 0.89 | 0.969 | 1.07 | 1.03 | 0.942 | 0.869 | 1.11 | 1.04 | 1.24
NCI-H460 | 0.943 | 0.958 | 0.969 | 0.985 | 0.966 | 1 | 1.04 | 1.01 | 1.05 | 0.515 | 0.548 | 0.683 | 0.662 | 1.03 | 1.23 | 1.2 | 1.14 | 1.13
EPLC-272H | 0.818 | 1.01 | 1.14 | 0.801 | 0.706 | 0.919 | 0.962 | 1.07 | 0.92 | 0.781 | 1.12 | 1.12 | 0.942 | 0.765 | 1.07 | 0.843 | 1.12 | 1.1
